Reference: patent US20090181972A1, “Novel Inhibitors of Cysteine Proteases, the Pharmaceutical Compositions Thereof and their Therapeutic Applications” (priority 2005, published 2009)

How the values were obtained:
USP7 = biological target: T1, USP7 (Homo sapiens, UniProt Q93009); assay: USP7 activity assay; type: biochemical; conditions: 400 nM Ub-AMC, 152 pM enzyme; pre-incubated 30 minutes at 25° C., 60 minutes at 37° C.; sigmoidal fit; read-out: USP 7
T1 construct: His tag (pFastBac-HT vector) (N); made in house; host or cells: Sf9 or High Five insect cells (baculovirus)
T1 sequence (Q93009 whole entry): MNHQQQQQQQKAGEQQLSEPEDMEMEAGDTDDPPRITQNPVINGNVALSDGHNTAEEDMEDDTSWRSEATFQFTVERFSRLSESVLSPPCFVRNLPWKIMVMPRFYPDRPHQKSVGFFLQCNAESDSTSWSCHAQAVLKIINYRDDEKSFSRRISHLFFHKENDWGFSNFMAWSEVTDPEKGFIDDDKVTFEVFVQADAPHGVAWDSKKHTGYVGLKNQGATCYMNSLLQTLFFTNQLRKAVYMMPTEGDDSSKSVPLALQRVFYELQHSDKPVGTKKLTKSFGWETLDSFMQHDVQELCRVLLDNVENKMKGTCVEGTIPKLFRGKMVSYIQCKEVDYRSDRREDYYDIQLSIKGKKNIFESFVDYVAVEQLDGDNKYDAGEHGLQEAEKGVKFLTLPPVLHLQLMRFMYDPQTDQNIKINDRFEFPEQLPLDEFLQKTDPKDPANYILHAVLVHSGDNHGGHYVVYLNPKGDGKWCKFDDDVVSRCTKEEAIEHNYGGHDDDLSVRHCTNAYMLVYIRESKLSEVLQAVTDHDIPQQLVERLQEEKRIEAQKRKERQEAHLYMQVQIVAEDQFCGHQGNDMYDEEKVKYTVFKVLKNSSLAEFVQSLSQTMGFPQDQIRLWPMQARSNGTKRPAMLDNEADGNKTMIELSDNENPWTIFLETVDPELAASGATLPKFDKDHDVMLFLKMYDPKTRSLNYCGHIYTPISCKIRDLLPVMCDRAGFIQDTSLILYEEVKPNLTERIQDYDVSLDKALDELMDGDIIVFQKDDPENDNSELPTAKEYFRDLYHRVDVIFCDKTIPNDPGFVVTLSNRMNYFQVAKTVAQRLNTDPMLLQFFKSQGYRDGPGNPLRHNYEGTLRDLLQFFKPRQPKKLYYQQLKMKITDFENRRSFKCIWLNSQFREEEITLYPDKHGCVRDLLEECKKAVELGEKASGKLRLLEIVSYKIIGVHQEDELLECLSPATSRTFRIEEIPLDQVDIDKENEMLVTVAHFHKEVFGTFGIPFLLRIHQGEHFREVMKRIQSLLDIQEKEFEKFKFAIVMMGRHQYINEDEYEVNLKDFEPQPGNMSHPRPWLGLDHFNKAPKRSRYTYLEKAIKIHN
Excerpt: The cDNA encoding USP7 was obtained by PCR amplification from placenta mRNA. USP7 cDNA was subcloned by PCR into a baculovirus expression vector (pFastBac-HT; Invitrogen). A cDNA encoding a mutated USP7 was generated by mutagenic PCR. The corresponding protein encodes a cysteine to alanine substitution at residue 223. The sequences were ascertained by sequencing of the entire open reading frame. Bacmids encoding USP7 were generated following DH10bac transposition. The corresponding bacmids were transfected into insect cells (Sf9). Viruses were recovered from culture supernatant and amplified twice. Insect cells (Sf9 or High Five; lnvitrogen) were infected for 72 hours. Total cell lysates were harvested and lyzed in lysis buffer (Tris HCl 50 mM pH 7.6; 0.75 % NP40; 500 mM NaCl; 10% glycerol; 1 mM DTT; 10 mM imidazole; Protease Inhibitor Cocktail; AEBSF 20 μg.ml^−1; Aprotinin 10 μg.ml^−1). Proteins were affinity purified on metal affinity resins (Talon Metal affinity resin; BD Biosciences). Bound materials were extensively washed in wash buffer (50 mM Sodium Phosphate pH 7.0; 300 mM NaCl; 10 mM imidazole; 0.5% Triton X-100; 10% glycerol) and eluted from the resin in 250 mM imidazole-containing wash buffer. Proteins were dialyzed in dialysis buffer (Tris HCl pH 7.6 20 mM; NaCl 200 mM; DTT 1 mM; EDTA 1 mM; 10% Glycerol). Proteins purifications were analyzed on 4-12% NuPAGE (Invitrogen).
USP7 was diluted in USP buffer (50 mM Tris HCl; 0.5 mM EDTA; 5 mM DTT; 0.01 % Triton X-100; Bovine Serum Albumin 0.05 mg.ml^−1 pH 7.6). Compounds stocks (100 mM) were stored at −20° C. in DMSO. Compounds were tested at the following final concentrations: 100 μM; 33.3 μM; 11.1 μM; 3.7 μM; 1.23 μM; 412 nM; 137 nM; 45.7 nM; 15.2 nM; 5 nM.
Reactions were performed as duplicates in Black LJL 96 well plates (HE microplates; Molecular Devices; 20 μl final reaction volume). The substrate concentration for USP7 was 400 nM Ub-AMC (Chem. Biol., 2003, 10, p. 837-846) (Boston Biochem). The concentrations of the enzyme (USP7) in specificity assays was 152 pM. The concentrations were determined in order to perform specificity assays under initial velocities at fixed substrate concentration. Compounds were pre-incubated with enzymes for 30 minutes at 25° C. Reactions were initiated by addition of substrate to the plates containing the enzymes (+/− compounds) diluted in assay buffer. Reactions were incubated for 60 minutes at 37° C. Reactions were stopped by adding acetic acid (100 mM final). Readings were performed on a Pherastar Fluorescent Reader (BMG). λ Emission 380 nm; λ Excitation=460 nm. Data (mean values +/− standard deviation) were analyzed as % of control (no compound) and plotted as percentage versus the Log of the compound concentration using GraphPad (Prism). Data were fitted to a sigmoidal model (variable slope).

Caspase 3 = biological target: T2, Caspase 3 (Homo sapiens, UniProt P42574); assay: Caspase 3 activity assay; type: biochemical; conditions: 500 nM Ac-DEVD-AMC, 3.2 nM enzyme; pre-incubated 30 minutes at 25° C., 60 minutes at 37° C.; sigmoidal fit
T2 sequence (P42574 29-175 limits assumed): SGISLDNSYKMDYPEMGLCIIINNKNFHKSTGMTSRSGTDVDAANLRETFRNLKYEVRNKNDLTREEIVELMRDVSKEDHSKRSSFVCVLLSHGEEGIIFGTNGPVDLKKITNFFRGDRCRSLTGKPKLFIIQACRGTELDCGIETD
T2 sequence (P42574 176-277 limits assumed): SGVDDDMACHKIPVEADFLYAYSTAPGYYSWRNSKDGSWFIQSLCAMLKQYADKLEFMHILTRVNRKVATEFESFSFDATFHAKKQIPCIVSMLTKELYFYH
Procedure: Caspase 3 was diluted in Caspase 3 buffer (100 mM Hepes pH 7.5; 10% sucrose; 0.1% CHAPS). Compounds stocks (100 mM) were stored at −20° C. in DMSO. Compounds were tested at the following final concentrations: 100 μM; 33.3 μM; 11.1 μM; 3.7 μM; 1.23 μM; 412 nM; 137 nM; 45.7 nM; 15.2 nM; 5 nM. Reactions were performed as duplicates in Black LJL 96 well plates (HE microplates; Molecular Devices; 20 μl final reaction volume). The substrate concentration for caspase 3 specificity assay was 500 nM (Ac-DEVD-AMC; Promega). The concentration of the enzyme (Caspase 3) in specificity assays was 3.2 nM. The concentrations were determined in order to perform specificity assays under initial velocities at fixed substrate concentration. Compounds were pre-incubated with enzymes for 30 minutes at 25° C. Reactions were initiated by addition of substrate to the plates containing the enzymes (+/− compounds) diluted in assay buffer. Reactions were incubated for 60 minutes at 37° C. Reactions were stopped by adding acetic acid (100 mM final). Readings were performed on a Pherastar Fluorescent Reader (BMG). δ Emission 380 nm; δ Excitation=460 nm. Data (mean values +/− standard deviation) were analyzed as % of control (no compound) and plotted as percentage versus the Log of the compound concentration using GraphPad (Prism). Data were fitted to a sigmoidal model (variable slope).

Row | IC50 (USP7) [nM] | IC50 (Caspase 3) [nM] | Compound
1 | 820 | – | CC(C)c1nnc2nc3c(nn12)-c1ccccc1C3=O [Example 1l/B, 3-Isopropyl-1,2,3a,4,10-pentaaza-cyclopenta[b]fluoren-9-one]
2 | 13300 | 5200 | CCc1nnc2nc3c(nn12)C(=O)c1cc(OC)c(OC)cc1-3 [Example 5b/A, 1-Ethyl-6,7-dimethoxy-2,3,4,10,10a-pentaaza-cyclopenta[b]fluoren-9-one]
3 | 936 | – | CCCc1nnc2nc3c(nn12)-c1cc(OC)c(OC)cc1C3=O [Example 5c/B, 6,7-Dimethoxy-3-propyl-1,2,3a,4,10-pentaaza-cyclopenta[b]fluoren-9-one]
4 | – | 5000 | CC(C)c1nnc2nc3c(nn12)C(=O)c1ccccc1-3 [Example 1l/A, 1-lsopropyl-2,3,4,10,10a-pentaaza-cyclopenta[b]fluoren-9-one]
5 | 3080 | – | CCc1nnc2nc3c(nn12)-c1c(OC)ccc(OC)c1C3=O [Example 6/B, 3-Ethyl-5,8-dimethoxy-1,2,3a,4,10-pentaaza-cyclopenta[b]fluoren-9-one]
6 | 525 | – | COc1cc2c(cc1OC)-c1nn3c(C)nnc3nc1C2=O [Example 5a/B, 6,7-Dimethoxy-3-methyl-1,2,3a,4,10-pentaaza-cyclopenta[b]fluoren-9-one]
7 | 1200 | – | COCCOCCOCc1nnc2nc3c(nn12)C(=O)c1ccccc1-3 [Example 1n/A, 1-[2-(2-Methoxy-ethoxy)-ethoxymethyl]-2,3,4,10,10a-pentaaza-cyclopenta[b]fluoren-9-one]
8 | 2800 | 1510 | 6-(7)-Chloro-1-methyl-2,3,4,10,10a-pentaaza-cyclopenta[b]fluoren-9-one [Example 3/A]
9 | 226 | – | O=C1c2ccccc2-c2nn3c(C(F)(F)F)nnc3nc21 [Example 1m/B, 3-Trifluoromethyl-1,2,3a,4,10-pentaaza-cyclopenta[b]fluoren-9-one]
10 | 1050 | 314 | CCc1nnc2nc3c(nn12)-c1cc(OC)c(OC)cc1C3=O [Example 5b/B, 3-Ethyl-6,7-dimethoxy-1,2,3a,4,10-pentaaza-cyclopenta[b]fluoren-9-one]
